Test results: patent US6794126B2, “Methods for preventing or inhibiting neuronal cell death” (The Trustees of Columbia University in the City of New York, priority 1996, dated 2004)

How the values were obtained:
PC12 cells [1] = assay: PC12 cell survival after SOD1 down-regulation by V-ASOD1; assay type: cell-based, rat
Experimental: (§1) PC12 cells were grown as previously described (Greene and Tishcler, 1976) on rat-tail collagen-coated dishes in RPMI 1640 medium containing 5% fetal calf serum and 10% heat-inactivated horse serum (complete medium). NGF primed PC12 cells were grown for at least 7 days in RPMI 1640 medium plus 1% horse serum and NGF (100 ng/ml). For cell survival assays involving trophic factor deprivation, cells (either naive or NGF-pretreated) were extensively washed in serum-free RPMI 1640 medium and re-plated on fresh collagen-coated 24-well dishes as previously described (Rukenstein et al., 1991) in RPMI 1640 medium lacking serum or NGF. For SOD1 down-regulation survival assays, cells were re-plated in complete medium with V-ASOD1 (vector linked antisense oligonucleotide to SOD1, 50 nM). Various concentrations of ICE inhibitors were included in the medium as indicated. Numbers of viable cells per culture were determined by quantifying intact nuclei as previously described (Rukenstein et al., 1991). Counts were performed in triplicate and reported as means±SEM.

PC12 cells [2] = assay: Addition of rhIL-1β to PC12 cultures in the presence of NGF, insulin or serum; assay type: cell-based; details: 1 μg/ml
Experimental: as §1

PC12 cells [3] = assay: PC12 cell survival after withdrawal of serum/NGF (trophic factor deprivation); assay type: cell-based, rat; details: naive and primed PC12 cells, serum/NGF withdrawal
Experimental: as §1

sympathetic neurons [4] = assay: Survival of cultured sympathetic neurons after NGF withdrawal (Example 1); assay type: cell-based, rat; details: 50 nM, NGF-deprived
Experimental: Sympathetic neuron cultures were prepared from 2 day old rat pups, as previously described (Ferrari et al., 1995). Cultures were grown in 24-well collagen coated dishes in RPMI 1640 medium plus 10% horse serum with mouse NGF (100 ng/ml). One day following plating, uridine and 5-fluorodeoxyuridine (10 μM each) were added to the cultures and left for three days to eliminate non-neuronal cells. On the sixth day following plating NGF was removed by washing the cultures three times with RPMI 1640 medium plus 10% horse serum, followed by the addition of medium containing anti-mouse NGF (1:200, Sigma) with or without ICE inhibitors. Each culture was scored, as previously described (Rydel and Greene, 1988), as numbers of living, phase-bright neurons at various times. Three replicate cultures were assessed for each condition and data were normalized to numbers of neurons present in each culture at the time of NGF withdrawal and reported as mean±SEM.

IL-1β = assay: Assay of IL-1β secreted by PC12 cells (ELISA); assay type: cell-based, rat; details: 24 h; V-ICEinh 25 nM for V-ASOD1 treatment
Experimental: IL-1β was quantified by ELISA using the Intertest-1βX kit (Genzyme, Cambridge, Mass.). PC12 cells were grown as described above, on 24-well plates, in 500 μl of medium. After one day incubation, medium was removed and IL-1β measured following the manufacturer's instructions, and number of viable cells in each well quantified.

sympathetic neurons [5] = assay: Survival of sympathetic neurons exposed to UV irradiation; assay type: cell-based, rat; details: 200 nM, pretreated 18 hr
Experimental: Cells were exposed to UV irradiation using the Stratolinker UV crosslinker (Stratagene®). Sympathetic neurons were exposed to 3×10^4 μJ while neuronal PC12 cells were exposed to […]. Each well was exposed with 200 μl of medium containing NGF with or without the appropriate drug. After irradiation 300 μl of additional medium containing NGF with or without drug was added.
(§2) The cells were plated onto collagen-coated 24-well dishes at a density of approximately 0.5 ganglia per well and maintained in RPMI 1640 medium supplemented with 10% heat-inactivated horse serum and 60 ng/ml mouse NGF for a period of three days prior to the survival experiment. A mixture of uridine and 5-fluorodeoxyuridine (10 mM each) was also added to eliminate non-neuronal cells on day two. No pretreatment with survival agent, unless otherwise noted, was necessary for effective survival of neurons exposed to AraC. In the case of UV irradiation, the neurons died quite rapidly. Accordingly, neuronal cultures were pretreated overnight (18 hr) with survival-promoting agents prior to UV irradiation. NGF deprivation was performed by washing with NGF-free medium and addition of anti-NGF antiserum as previously described (Park et al., 1996a). V-ASOD1 oligonucleotides, in conjunction with the nitric oxide generator, S-nitrosopenicillamine (SNAP; 100 μM) were added to the cultured sympathetic neurons as previously described (Troy et al., 1997). At appropriate times, the numbers of viable, phase bright neurons were determined by strip counting as previously described (Rydel and Greene; 1988). All experimental points are expressed relative to the original number of neurons present in each well and are reported as mean+/−SEM (n=3).

sympathetic neurons [6] = assay: Survival of sympathetic neurons treated with AraC; assay type: cell-based; details: 200 nM, AraC 100 μM
Experimental: A mixture of uridine and 5-fluorodeoxyuridine (10 mM each) was also added to eliminate non-neuronal cells on day two. No pretreatment with survival agent, unless otherwise noted, was necessary for effective survival of neurons exposed to AraC. In the case of UV irradiation, the neurons died quite rapidly. Accordingly, neuronal cultures were pretreated overnight (18 hr) with survival-promoting agents prior to UV irradiation. […] All experimental points are expressed relative to the original number of neurons present in each well and are reported as mean+/−SEM (n=3).

sympathetic neurons [7] = assay: Survival of sympathetic neurons depleted of SOD1 (V-ASOD1 plus SNAP); assay type: cell-based, rat; details: V-linked peptides
Experimental: as §2

sympathetic neurons [8] = assay: Survival of sympathetic neurons deprived of NGF (Example 2); assay type: cell-based, rat; details: 200 nM, pretreated 18 hr
Experimental: as §2

sympathetic neurons [9] = assay: Survival of sympathetic neurons exposed to camptothecin; assay type: cell-based, rat; details: V-linked peptides

Compound | effect of exogenous IL-1β on V-ASOD1 induced death (PC12 cells [1]; IL-1β 1 μg/ml with V-ASOD1 50 nM) | effect of exogenous IL-1β on protection by V-ICEinh (PC12 cells [1]; IL-1β 1 μg/ml, V-ASOD1 50 nM, V-ICEinh 25 nM) | effect of exogenous IL-1β alone on cell death (PC12 cells [1]; IL-1β 1 μg/ml, no V-ASOD1) | cell death on addition to PC12 cultures (PC12 cells [2]) | time of partial protection (PC12 cells [3]) | peptide concentration giving complete protection from death (PC12 cells [3]; 24 hours) | time for which death was retarded (sympathetic neurons [4]) | time of complete protection from death (sympathetic neurons [4]) | effect on the capacity of ASOD1 to lower cellular SOD1 (PC12 cells [1]) | dose required for maximal protection (PC12 cells [1]; V-ASOD1 50 nM, one day) | protection from death induced by down-regulation of SOD1 (PC12 cells [1]; naive and NGF-treated PC12 cells, V-ASOD1 50 nM, one day) | increase in IL-1β secretion per cell after SOD1 down-regulation (IL-1β) | death of sympathetic neurons exposed to UV (sympathetic neurons [5]) | death of AraC-treated sympathetic neurons (sympathetic neurons [6]) | death of sympathetic neurons depleted of SOD1 (sympathetic neurons [7]) | protection from NGF deprivation (sympathetic neurons [8]) | death of sympathetic neurons exposed to camptothecin (sympathetic neurons [9])
IL-1β: recombinant human IL-1β provided by the NCI | potentiates the cell death | abrogates the protection | no effect | did not produce cell death | – | – | – | – | – | – | – | – | – | – | – | – | –
CC[C@H](C)[C@H](N)C(=O)N[C@@H](CCC(N)=O)C(=O)N[C@@H](C)C(=O)N[C@@H](CSSC[C@H](N)C(=O)N[C@@H](CCCNC(=N)N)C(=O)N[C@@H](CCC(N)=O)C(=O)N[C@H](C(=O)N[C@@H](CCCCN)C(=O)N[C@H](C(=O)N[C@@H](Cc1c[nH]c2ccccc12)C(=O)N[C@@H](Cc1ccccc1)C(=O)N[C@@H](CCC(N)=O)C(=O)N[C@@H](CC(N)=O)C(=O)N[C@@H](CCCNC(=N)N)C(=O)N[C@@H](CCCNC(=N)N)C(=O)N[C@@H](CCSC)C(=O)N[C@@H](CCCCN)C(=O)N[C@@H](Cc1c[nH]c2ccccc12)C(=O)N[C@@H](CCCCN)C(=O)N[C@@H](CCCCN)C(=O)O)[C@@H](C)CC)[C@@H](C)CC)C(=O)N[C@@H](CCCNC(=N)N)C(=O)NCC(=O)O [V-ICEinh] | – | – | – | – | at least 8 days | 200 to 400 nM | at least 6 days | 3 days | no effect | 25 to 50 nM | protects | blocked | blocked death | blocked death | blocked death | protected | blocked death
